Structures are written as SMILES.

For assay [1], the system named is Corynebacterium glutamicum CJM107. The assay can be described thus: Resistance to monensin: growth on minimal agar plate medium containing monensin. The conditions noted are these: Monensin 7,000 μg/l, 4 days, mutant strain CJM107. The assay is classed as cell-based. As for the experimental part:
(§1) The parent CH77 strain and the mutant CJM107 strain were tested for their resistance to monensin by the following method. Cells were grown in a Luria-Bertani (LB) liquid medium for 16 hours. Then, the cells were washed twice with a sterilized physiological saline and then, appropriately diluted and cultivated on a minimal agar plate medium [glucose 10 g, (NH4)2SO4 2 g, urea 2 g, KH2PO4 1 g, K2HPO4 3 g, MgSO4.7H2O 0.5 g, FeSO4.7H2O 10 mg, MnSO4.7H2O 10 mg, biotin 100 μg, Thiamin.HCl 100 μg, CaCl2.2H2O 100 μg, Na2B4O7.10H2O 80 μg, (NH4)6MoO27.4H2O 40 μg, ZnSO4.7H2O 10 μg, CuSO4.7H2O 10 μg, MnCl2.4H2O 10 μg, FeCl3.6H2O 1 mg, agar 20 g, if necessary L-leucine 0.1 g, if necessary L-threonine 0.1 g, if necessary L-methionine 0.1 g, per distilled water of 11 (pH 7.0)] containing monensin of 7,000 μg/1 for 4 days.

Assay [2] relates to Corynebacterium glutamicum CH77. The description is as above. The assay is classed as cell-based. The conditions noted are these: Monensin 7,000 μg/l, 4 days, parent strain CH77. As for the experimental part:
as §1

As to `CC[C@@]1([C@@H]2O[C@@H]([C@H]3O[C@@](O)(CO)[C@H](C)C[C@@H]3C)C[C@@H]2C)CC[C@H]([C@]2(C)CC[C@]3(C[C@H](O)[C@@H](C)[C@@H]([C@@H](C)[C@@H](OC)[C@H](C)C(=O)O)O3)O2)O1` [Monensin, monensin], the “Growth of CJM107 in the presence of monensin” value in assay [1] is “+++”. In assay [2], the “Growth of CH77 in the presence of monensin” value is given as “−”.

These data come from patent publication US7008786B2, “Microorganism producing L-lysine and processes for producing L-lysine using the same” (priority 2000, dated 2006).
